{
  "source": "BindingDB's records for doi:10.1016/j.ejmech.2020.112522",
  "about": "(Xuzhou Medical University, 2020)",
  "key": {"[1]": {"assay": "Inhibition of wild type EGFR in human A-431 cells assessed as cell growth inhibition measured after 72 hrs by Celltiter-Glo luminescent cell viability assay"}, "[2]": {"assay": "Inhibition of wild type EGFR in human HepG2 cells assessed as cell growth inhibition measured after 72 hrs by Celltiter-Glo luminescent cell viability assay"}, "[3]": {"assay": "Inhibition of wild type EGFR in human MCF7 cells assessed as cell growth inhibition measured after 72 hrs by Celltiter-Glo luminescent cell viability assay"}, "[4]": {"assay": "Inhibition of wild type EGFR in human HT-29 cells assessed as cell growth inhibition measured after 72 hrs by Celltiter-Glo luminescent cell viability assay"}},
  "data": [
    {"smiles": "C=CCSSCCC(=O)OCCCOc1cc2ncnc(Nc3cccc(Br)c3)c2cc1OC", "values": [
      {"measurement": "IC50", "setting": "[1]", "result": 6.7, "unit": "µM"},
      {"measurement": "IC50", "setting": "[2]", "result": "> 10", "unit": "µM"},
      {"measurement": "IC50", "setting": "[3]", "result": 7.31, "unit": "µM"},
      {"measurement": "IC50", "setting": "[4]", "result": "> 10", "unit": "µM"}
    ]}
  ]
}
